Reference: article PMC11999280, “Design and screening of novel endosomal escape compounds that enhance functional delivery of oligonucleotides in vitro” (Molecular Therapy. Nucleic Acids, 2025)

Legend:
Format in all cases: cell-based
[1] = tested on: mCherry-GAL9 expressing 16HBE cells; test: GAL9 recruitment assay, 16HBE; settings: calculated mean from >3 independent exp.
Method: (§1) Experiments assessing GAL9 localization as an indicator for endosomal remodeling were performed as previously described[15] using 8× stablemCherry-GAL9 expressing cell lines, SHSY5Y, U2OS, 16HBE, NCI-H358, HuH7, HepG2, HEK293, and HeLa. For mCherry-GAL9 recruitment, 3,000 or 6,500 cells/well (depending upon cell line) were seeded into 384-well CellCarrier Ultra plates 24 h prior to treatment (PerkinElmer, catalog no. 6007558). An Echo 655T acoustic dispenser (Labcyte) was used for EEE dose-response preparation by transferring to the cell plate. At assay endpoints, cells were PBS washed, 4% paraformaldehyde fixed at room temperature […] (VWR, catalog no. 9713.1000), and nuclei stained with PBS +1 μg/mL Hoechst 33342 (Thermo Fisher Scientific, catalog no. H21492).
(§2) Imaging was performed using a spinning-disk confocal microscope (Yokogawa: CV8000) with a ×20w objective (numerical aperture 1.0). Cells and mCherry-GAL9 structure identification and quantification were done using Columbus image-analysis software (PerkinElmer version 2.9.0). Data processing was done using Spotfire (Tibco version 11.4) and Prism (GraphPad version 9.1.0). Image panels were assembled using the FigureJ plugin for FIJI.[43] All mCherry-GAL9 experiments were performed three times (N = 3) with duplicated wells per treatment (n = 2).

[2] = tested on: mCherry-GAL9 expressing HEK293 cells; test: GAL9 recruitment assay, HEK293; settings: calculated mean from >3 independent exp.
Method: as §1, §2

[3] = tested on: mCherry-GAL9 expressing HeLa cells; test: GAL9 recruitment assay, HeLa; settings: calculated mean from >3 independent exp.
Method: as §1, §2

[4] = tested on: mCherry-GAL9 expressing HepG2 cells; test: GAL9 recruitment assay, HepG2; settings: calculated mean from >3 independent exp.
Method: as §1, §2

[5] = tested on: mCherry-GAL9 expressing HuH7 cells; test: GAL9 recruitment assay, HuH7; settings: calculated mean from >3 independent exp.
Method: as §1, §2

[6] = tested on: mCherry-GAL9 expressing NCI-H358 cells; test: GAL9 recruitment assay, NCI-H358; settings: calculated mean from >3 independent exp.
Method: as §1, §2

[7] = tested on: mCherry-GAL9 expressing SHSY5Y cells; test: GAL9 recruitment assay, SHSY5Y; settings: calculated mean from >3 independent exp.
Method: as §1, §2

[8] = tested on: mCherry-GAL9 expressing U2OS cells; test: GAL9 recruitment assay, U2OS; settings: calculated mean from >3 independent exp.
Method: as §1, §2

[9] = tested on: HeLa_Luc705 cells (pLuc/705 splice-switching reporter); test: Functional 705-SSO delivery, luciferase splice-switching assay; settings: mean from >3 independent experiments
From the text: Therefore, next, we functionally screened the SSO delivery in the HeLa_Luc705 reporter cell line. HeLa_Luc705 carries a pLuc/705 splice-switching reporter luciferase gene interrupted by a mutated β-globin intron, which creates a preferentially used cryptic 5′ splice site leading to aberrant splicing. Functional SSO delivery masks the cryptic site, redirecting the splicing machinery to the right splicing site, allowing the measurement of luciferase expression (Figure S1).[25]^,[26]^,[27]^,[28] We used SSO transfection with LF2000 as transfection control and the previously published endosomal escape enhancer CMP05 (here, EEE2) as positive control.[15]
For the assessment of functional SSO therapeutics, a HeLa_Luc705 cell line was grown in DMEM media supplemented with 10% fetal bovine serum (FBS). For most treatments, 10,000 cells/well were seeded in a 96-well plate, 24 h pre-incubated with 1- to 2-μM oligonucleotide, and then treated at the described EEE concentration. At 24 h post-treatment, cells were PBS rinsed and collected for further analysis (treatments and incubation times changed accordingly to the experiment design). Luciferase readout was performed as previously described,[15] using a GloMax 96-well plate microplate luminometer (Promega) immediately after adding 30 μL auto-injected luciferin substrate (Promega Firefly Luciferase Assay System; Thermo Scientific, catalog no. 16174) in a white-walled 96-well plate containing 30 μL 0.1% Triton X-100 (Sigma-Aldrich) cell lysed. Photon exposure time and delay were set to 10 and 2 s after injection. LF2000 was used as the transfection reagent control (Thermo Scientific, catalog no. 11668019). For EEE experiments using 1 or 2 μM SSOs, the control was prepared using lipofection with 100–200 nM SSO; this is to avoid complex induced cell toxicity.
705-SSO was purchased from and synthesized by Integrated DNA Technologies. The 705-SSO sequence was previously published, containing 2′-O-methylated bases and only phosphorothioate-saturated backbone linkages were included.[15] The 705-SSO was high-performance liquid chromatography purified, shipped, and stored in IDTE buffer (10 mM Tris, 0.1 mM EDTA).

Compound: CCCN1CCC(n2cc(Nc3ncc(F)c(-n4ccc5c(C#N)cccc54)n3)c(OC)n2)CC1 [EEE10]
- Gal9 response compared to reference ([1]; EEE 0.31 µM): 0.010
- Gal9 response compared to reference ([1]; EEE 0.62 µM): 0.011
- Gal9 response compared to reference ([1]; EEE 1.25 µM): 0.028
- Gal9 response compared to reference ([1]; EEE 2.5 µM): 0.183
- Gal9 response compared to reference ([1]; EEE 5 µM): 0.522
- Gal9 response compared to reference ([1]; EEE 10 µM): 0.746
- Gal9 response compared to reference ([2]; EEE 0.31 µM): 0.023
- Gal9 response compared to reference ([2]; EEE 0.62 µM): 0.026
- Gal9 response compared to reference ([2]; EEE 1.25 µM): 0.051
- Gal9 response compared to reference ([2]; EEE 2.5 µM): 0.379
- Gal9 response compared to reference ([2]; EEE 5 µM): 0.672
- Gal9 response compared to reference ([2]; EEE 10 µM): 0.647
- Gal9 response compared to reference ([3]; EEE 0.31 µM): 0.005
- Gal9 response compared to reference ([3]; EEE 0.62 µM): 0.005
- Gal9 response compared to reference ([3]; EEE 1.25 µM): 0.005
- Gal9 response compared to reference ([3]; EEE 2.5 µM): 0.145
- Gal9 response compared to reference ([3]; EEE 5 µM): 0.463
- Gal9 response compared to reference ([3]; EEE 10 µM): 0.588
- Gal9 response compared to reference ([4]; EEE 0.31 µM): 0.008
- Gal9 response compared to reference ([4]; EEE 0.62 µM): 0.007
- Gal9 response compared to reference ([4]; EEE 1.25 µM): 0.007
- Gal9 response compared to reference ([4]; EEE 2.5 µM): 0.008
- Gal9 response compared to reference ([4]; EEE 5 µM): 0.026
- Gal9 response compared to reference ([4]; EEE 10 µM): 0.371
- Gal9 response compared to reference ([5]; EEE 0.31 µM): 0.011
- Gal9 response compared to reference ([5]; EEE 0.62 µM): 0.009
- Gal9 response compared to reference ([5]; EEE 1.25 µM): 0.016
- Gal9 response compared to reference ([5]; EEE 2.5 µM): 0.121
- Gal9 response compared to reference ([5]; EEE 5 µM): 0.252
- Gal9 response compared to reference ([5]; EEE 10 µM): 0.414
- Gal9 response compared to reference ([6]; EEE 0.31 µM): 0.017
- Gal9 response compared to reference ([6]; EEE 0.62 µM): 0.016
- Gal9 response compared to reference ([6]; EEE 1.25 µM): 0.031
- Gal9 response compared to reference ([6]; EEE 2.5 µM): 0.194
- Gal9 response compared to reference ([6]; EEE 5 µM): 0.633
- Gal9 response compared to reference ([6]; EEE 10 µM): 0.662
- Gal9 response compared to reference ([7]; EEE 0.31 µM): 0.015
- Gal9 response compared to reference ([7]; EEE 0.62 µM): 0.024
- Gal9 response compared to reference ([7]; EEE 1.25 µM): 0.123
- Gal9 response compared to reference ([7]; EEE 2.5 µM): 0.877
- Gal9 response compared to reference ([7]; EEE 5 µM): 0.887
- Gal9 response compared to reference ([7]; EEE 10 µM): 0.717
- Gal9 response compared to reference ([8]; EEE 0.31 µM): 0.011
- Gal9 response compared to reference ([8]; EEE 0.62 µM): 0.012
- Gal9 response compared to reference ([8]; EEE 1.25 µM): 0.016
- Gal9 response compared to reference ([8]; EEE 2.5 µM): 0.076
- Gal9 response compared to reference ([8]; EEE 5 µM): 0.260
- Gal9 response compared to reference ([8]; EEE 10 µM): 0.512
- Luciferase expression compared to reference ([9]; HeLa-Luc705 + 2 µM SSO, EEE 2.5 - 3 µM): 0.565

Compound: COc1nn(C2CCNCC2C)cc1Nc1ncc(F)c(-n2ccc3c(C#N)cccc32)n1 (stereo not shown) [EEE35]
- Luciferase expression compared to reference ([9]; HeLa-Luc705 + 1 µM SSO, EEE 0.5 µM): 1.095
- Luciferase expression compared to reference ([9]; HeLa-Luc705 + 1 µM SSO, EEE 2 µM): 1.804
- Luciferase expression compared to reference ([9]; HeLa-Luc705 + 1 µM SSO, EEE 4 µM): 4.870
- Luciferase expression compared to reference ([9]; HeLa-Luc705 + 1 µM SSO, EEE 5 µM): 9.588
- Luciferase expression compared to reference ([9]; HeLa-Luc705 + 1 µM SSO, EEE 1-1.25 µM): 1.101
- Luciferase expression compared to reference ([9]; HeLa-Luc705 + 1 µM SSO, EEE 2.5 - 3 µM): 2.812
